Among the data in US9884818B2, “Sulphamoylpyrrolamide derivatives and the use thereof as medicaments for the treatment of hepatitis B” (Janssen Sciences Ireland UC, priority 2013, dated 2018) are EC50 and CC50 values, retold here.

Series [1] deals with HBV. As to the kind of experiment: Anti-HBV activity, HepG2.2.15 stable transfected cell line, HBV DNA from secreted virions by realtime PCR. Type of series: cell-based. Conditions: Hepatitis B virus, HepG2.2.15, 144 h, HepG2.2.15 cells, 6 days of treatment, HBV DNA from secreted virions; read-out: HepG2 2.15 EC50.
Series [2] deals with HBV. Nature of the series: Anti-HBV activity, HepG2.117 inducibly HBV producing cell line (Tet-off), intracellular HBV DNA by realtime PCR. The format is cell-based. As to conditions: Hepatitis B virus, HepG2.117, 72 h, HepG2.117 cells, 3 days of treatment, intracellular HBV DNA; read-out: HepG2 117 EC50.
Series [3] is described as follows: Cytotoxicity in HepG2 cells, Resazurin viability assay. As to conditions: human, HepG2 cells, HepG2 4 days CC50 (μM), incubated for 4 days, Resazurin assay.

As to `Cc1c(F)ccc(NC(=O)c2cc(S(=O)(=O)NC(C)C)cn2C)c1F` [Compound 99, N-(2,4-Difluoro-3-methylphenyl)-1-methyl-4-[(1-methylethyl)sulfamoyl]-1H-pyrrole-2-carboxamide], the results for the EC50 in the series on HBV [1] and with HBV [2] were 130 nM and 100 nM, respectively. Further, the CC50 at 4 days in series [3] is over 25 µM.
Regarding `Cn1cc(S(=O)(=O)NC2(C(F)(F)F)CCC2)c(Cl)c1C(=O)Nc1ccc(F)c(F)c1` [Compound 267, 3-chloro-N-(3,4-difluorophenyl)-1-methyl-4-{[1-(trifluoromethyl)-cyclobutyl]sulfamoyl}-1H-pyrrole-2-carboxamide], the figures for the EC50 in the series with HBV [1] and with HBV [2] were 6 nM and 9 nM, respectively. For the same compound, the CC50 at 4 days in series [3] was over 25 µM.
The like results for `Cn1cc(S(=O)(=O)NC2(C)COC2)c(F)c1C(=O)Nc1cccc(Br)c1` [Compound 251, N-(3-Bromophenyl)-3-fluoro-1-methyl-4-[(3-methyloxetan-3-yl)sulfamoyl]-1H-pyrrole-2-carboxamide] were, in that order, 10 nM, 60 nM and over 25 µM.
In the case of `Cn1cc(S(=O)(=O)NC(C)(C)C)cc1C(=O)Nc1cc(F)cc(C#N)c1` [Compound 53, 4-(tert-butylsulfamoyl)-N-(3-cyano-5-fluoro-phenyl)-1-methyl-pyrrole-2-carboxamide], the results for the EC50 with HBV [1] and with HBV [2] were 260 nM and 180 nM, respectively. Further, in series [3], the CC50 at 4 days is over 25 µM.
The like results for `Cn1cc(S(=O)(=O)NC(C)(C)C)c(F)c1C(=O)Nc1ccc(F)c(C#N)c1` [Compound 214, 4-(tert-Butylsulfamoyl)-N-(3-cyano-4-fluorophenyl)-3-fluoro-1-methyl-1H-pyrrole-2-carboxamide] were, in that order, 60 nM, 20 nM and over 25 µM.
Consider `Cc1cc(NC(=O)c2cc(S(=O)(=O)NC(C)(C)C(N)=O)cn2C)ccc1F` [Compound 64, 4-[(2-amino-1,1-dimethyl-2-oxo-ethyl)sulfamoyl]-N-(4-fluoro-3-methyl-phenyl)-1-methyl-pyrrole-2-carboxamide], for which the values for the EC50 in the series with HBV [1] and in the series with HBV [2] were 130 nM and 50 nM, respectively. In series [3], this compound registered a CC50 at 4 days of over 25 µM.
Taken in the same sequence, the figures for `Cc1cc(NC(=O)c2cc(S(=O)(=O)NC(C)C)c[nH]2)ccc1F` [Compound 1, N-(4-fluoro-3-methyl-phenyl)-4-(isopropylsulfamoyl)-1H-pyrrole-2-carboxamide] were 420 nM, 3100 nM and over 25 µM.
The like results for `[2H]c1cc(F)c(C)c([2H])c1NC(=O)c1cc(S(=O)(=O)NC2(C)COC2)cn1C` [Compound 56, N-(2,6-dideuterio-4-fluoro-3-methyl-phenyl)-1-methyl-4-[(3-methyloxetan-3-yl)sulfamoyl]pyrrole-2-carboxamide] were, in that order, 20 nM, under 20 nM and over 25 µM.
Taken in the same sequence, the figures for `CC[C@@H](C)NS(=O)(=O)c1cc(C(=O)Nc2ccc(F)c(F)c2)n(C)c1` [Compound 23, N-(3,4-difluorophenyl)-1-methyl-4-[[(1R)-1-methylpropyl]sulfamoyl]pyrrole-2-carboxamide] were 20 nM, 130 nM and over 25 µM.
With `C[C@@H](NS(=O)(=O)c1cc(C(=O)Nc2ccc(F)c(C(F)(F)F)c2)n(C)c1)C(F)(F)F` [Compound 125, N-[4-Fluoro-3-(trifluoromethyl)phenyl]-1-methyl-4-{[(1R)-2,2,2-trifluoro-1-methylethyl]sulfamoyl}-1H-pyrrole-2-carboxamide], the concentration for a half-maximal effect (EC50) in the series on HBV [1] was found to be 190 nM; in the series with HBV [2], 80 nM. Further, in series [3], the CC50 at 4 days was 16.7 µM.
Taken in the same sequence, the figures for `Cc1cc(NC(=O)c2cc(S(=O)(=O)N[C@H](C)CO)cn2C)cc(F)c1F` [Compound 36, N-(3,4-difluoro-5-methyl-phenyl)-4-[[(1R)-2-hydroxy-1-methyl-ethyl]-sulfamoyl]-1-methyl-pyrrole-2-carboxamide] were 80 nM, 40 nM and over 25 µM.
The like results for `Cc1c(S(=O)(=O)N[C@H](C)C(F)(F)F)cn(C)c1C(=O)Nc1ccc(F)c(C#N)c1` [Compound 150, N-(3-Cyano-4-fluorophenyl)-1,3-dimethyl-4-{[(1R)-2,2,2-trifluoro-1-methylethyl]sulfamoyl}-1H-pyrrole-2-carboxamide] were, in that order, 90 nM, 60 nM and over 25 µM.
As to `Cc1c(S(=O)(=O)NC2(C)COC2)cn(C)c1C(=O)Nc1ccc(F)c(C(F)(F)F)c1` [Compound 179, N-[4-Fluoro-3-(trifluoromethyl)phenyl]-1,3-dimethyl-4-[(3-methyloxetan-3-yl)sulfamoyl]-1H-pyrrole-2-carboxamide], the concentration for a half-maximal effect (EC50) with HBV [1] is 300 nM; in the series with HBV [2], 270 nM. The CC50 at 4 days in series [3] was over 25 µM.
The like results for `CC(C)NS(=O)(=O)c1cc(C(=O)Nc2ccc(F)c(Cl)c2)n(C)c1` [Compound 174, N-(3-Chloro-4-fluorophenyl)-1-methyl-4-[(1-methylethyl)sulfamoyl]-1H-pyrrole-2-carboxamide] were, in that order, 80 nM, 40 nM and over 25 µM.
Consider `C[C@H](NS(=O)(=O)c1cc(C(=O)Nc2ccc(F)c(Cl)c2F)n(C)c1)C(F)(F)F` [Compound 156, N-(3-Chloro-2,4-difluorophenyl)-1-methyl-4-{[(1S)-2,2,2-trifluoro-1-methylethyl]sulfamoyl}-1H-pyrrole-2-carboxamide], for which the values for the EC50 in the series on HBV [1] and in the series with HBV [2] were 40 nM and 30 nM, respectively. The cytotoxic concentration (CC50) at 4 days in series [3] is over 25 µM.
Taken in the same sequence, the figures for `Cc1cccc(F)c1NC(=O)c1c(Cl)c(S(=O)(=O)N[C@H](C)C(F)(F)F)cn1C` [Compound 275, 3-chloro-N-(2-fluoro-6-methyl-phenyl)-1-methyl-4-[[(1R)-2,2,2-trifluoro-1-methyl-ethyl]sulfamoyl]pyrrole-2-carboxamide] were 600 nM, 700 nM and over 25 µM.
For `Cn1cc(S(=O)(=O)NC2(C)COC2)cc1C(=O)Nc1cccc(C(F)(F)F)c1` [Compound 28, 1-methyl-4-[(3-methyloxetan-3-yl)sulfamoyl]-N-[3-(trifluoromethyl)-phenyl]pyrrole-2-carboxamide], the EC50 in the series with HBV [1] came out at 100 nM; in the series on HBV [2], 140 nM. This compound also registered a CC50 at 4 days in series [3] of over 25 µM.
On to `Cn1cc(S(=O)(=O)NCC(F)F)cc1C(=O)Nc1ccc(F)c(F)c1` [Compound 129, 4-[(2,2-Difluoroethyl)sulfamoyl]-N-(3,4-difluorophenyl)-1-methyl-1H-pyrrole-2-carboxamide], for which the EC50 was 170 nM with HBV [1] and 80 nM with HBV [2]. In series [3], this compound had a CC50 at 4 days of over 25 µM.
The like results for `CC[C@H](NS(=O)(=O)c1cc(C(=O)Nc2ccc(F)c(Cl)c2F)n(C)c1)C(F)(F)F` [Compound 262, N-(3-chloro-2,4-difluoro-phenyl)-1-methyl-4-{[(1S)-1-(trifluoro-methyl)propyl]sulfamoyl}-1H-pyrrole-2-carboxamide] were, in that order, 20 nM, 20 nM and over 25 µM.
In the case of `Cn1cc(S(=O)(=O)NC2(C)COC2)cc1C(=O)Nc1cc(Cl)cc(C#N)c1` [Compound 87, N-(3-Chloro-5-cyanophenyl)-1-methyl-4-[(3-methyloxetan-3-yl)sulfamoyl]-1H-pyrrole-2-carboxamide], the EC50 in the series on HBV [1] is 960 nM; in the series on HBV [2] it was over 1000 nM. The compound further registered a CC50 at 4 days in series [3] of over 25 µM.
For the compound `Cn1cc(S(=O)(=O)NC2(C)COC2)cc1C(=O)Nc1ccc(F)c(OC(F)(F)F)c1` [Compound 86, N-[4-Fluoro-3-(trifluoromethoxy)phenyl]-1-methyl-4-[(3-methyloxetan-3-yl)sulfamoyl]-1H-pyrrole-2-carboxamide], the EC50 amounted to 370 nM in the series with HBV [1] and 350 nM with HBV [2]. The CC50 at 4 days in series [3] was over 25 µM.
Consider `Cn1cc(S(=O)(=O)N[C@H]2CCOC2)cc1C(=O)Nc1cc(F)c(F)c(F)c1` [Compound 26, 1-methyl-[[(3S)-tetrahydrofuran-3-yl]sulfamoyl]-N-(3,4,5-trifluoro-phenyl)pyrrole-2-carboxamide], for which the EC50 in the series with HBV [1] turned out to be 140 nM; with HBV [2], 260 nM. In series [3], this compound came in with a CC50 at 4 days of over 25 µM.
The like results for `CCn1cc(S(=O)(=O)NC(C)C)cc1C(=O)Nc1ccc(F)c(C)c1` [Compound 29, 1-ethyl-N-(4-fluoro-3-methyl-phenyl)-4-(isopropylsulfamoyl)pyrrole-2-carboxamide] were, in that order, 150 nM, 210 nM and over 25 µM.
The like results for `Cn1cc(S(=O)(=O)NC2(C(N)=O)CC2)cc1C(=O)Nc1cc(F)c(F)c(Cl)c1` [Compound 114, 4-[(1-Carbamoylcyclopropyl)sulfamoyl]-N-(3-chloro-4,5-difluorophenyl)-1-methyl-1H-pyrrole-2-carboxamide] were, in that order, 100 nM, 50 nM and over 25 µM.
Taken in the same sequence, the figures for `CC[C@@H](NS(=O)(=O)c1cc(C(=O)Nc2ccc(F)c(C#N)c2)n(C)c1)C(F)(F)F` [Compound 240, N-(3-Cyano-4-fluorophenyl)-1-methyl-4-{[(1R)-1-(trifluoromethyl)-propyl]sulfamoyl}-1H-pyrrole-2-carboxamide] were 20 nM, 50 nM and over 25 µM.
Take `CC(C)NS(=O)(=O)c1cn(C)c(C(=O)Nc2ccc(F)c(C#N)c2)c1F` [Compound 171, N-(3-Cyano-4-fluorophenyl)-3-fluoro-1-methyl-4-[(1-methylethyl)sulfamoyl]-1H-pyrrole-2-carboxamide]: the EC50 in the series with HBV [1] and in the series on HBV [2] was 20 nM throughout. In addition, the CC50 at 4 days in series [3] was over 25 µM.
